The results in this text go back to ChEMBL document CHEMBL1201862, “PubChem BioAssay data set” (2004).

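Assay format: 96-well plates, 48-hour exposure. The concentration for 50% growth inhibition is given as GI50.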 Active and inactive are the calls of the source. No stated cut-off is given here; in the data, active = GI50 up to about 1.1 µM and inactive = higher. Bounds are passed on as bounds.

Test systems include NCI-H23; RXF 393; DU-145; HCT-15; MCF7; SR; UACC-257; MDA-MB-435; MDA-MB-231; OVCAR-4; HL-60; UO-31; SN12C; A498; OVCAR-3; SF-295; MDA-N; K562; UACC-62; SF-539.
Holding throughout (assay): NCI anticancer screen, dose series, 48 h

For the molecule `N#CC(NCCO)=C1C(=O)c2ccccc2C1=O`, the GI50 in the experiment with NCI-H23 is > 100 µM (inactive); in the experiment with RXF 393, > 100 µM (inactive); in the experiment on DU-145, > 100 µM (inactive); in the experiment on HCT-15 it was more than 100 µM; in the experiment with MCF7 it was > 100 µM (inactive); in the experiment on SR it was > 100 µM (inactive). Also, the GI50 with UACC-257, in the experiment with MDA-MB-435, in the experiment on MDA-MB-231, in the experiment on OVCAR-4, in the experiment on HL-60 and in the experiment with UO-31 was > 100 µM (inactive) throughout. Moreover, the GI50 with SN12C, in the experiment with A498, in the experiment with OVCAR-3, with SF-295, in the experiment with MDA-N and in the experiment on K562 was > 100 µM (inactive) in each case. The GI50 with UACC-62 and in the experiment with SF-539 was > 100 µM (inactive) in each case.

`COC(=O)Cc1c([C@H]2[C@H](CC(=O)OC)c3ccccc3N2S(=O)(=O)c2ccc(C)cc2)[nH]c2ccccc12`: the GI50 in the experiment on NCI-H23 was > 100 µM (inactive); in the experiment on RXF 393, > 100 µM (inactive); with DU-145 it was > 100 µM (inactive); in the experiment with HCT-15, more than 100 µM; with MCF7, > 100 µM (inactive); in the experiment on SR, 9.33 µM (inactive). Besides, the GI50 in the experiment on UACC-257, in the experiment with MDA-MB-435, in the experiment on MDA-MB-231, in the experiment with OVCAR-4, in the experiment with HL-60 and with UO-31 was > 100 µM (inactive) throughout. The GI50 is > 100 µM (inactive) with SN12C; > 100 µM (inactive) with A498; > 100 µM (inactive) in the experiment on OVCAR-3; > 100 µM (inactive) in the experiment on SF-295; > 100 µM (inactive) with MDA-N; 31.4 µM (inactive) in the experiment with K562. In addition, the GI50 in the experiment with UACC-62 and in the experiment on SF-539 was > 100 µM (inactive) throughout.

As to `CCOC1(OCC)C2C=CC1C(COS(=O)(=O)c1ccc(C)cc1)C2COS(=O)(=O)c1ccc(C)cc1` (stereo not given), the GI50 with NCI-H23 was 39.1 µM (inactive); with RXF 393 it was 39.9 µM (inactive); with DU-145 it was 39.8 µM (inactive); with HCT-15 it was 26 µM; in the experiment with MCF7, 30.2 µM (inactive); in the experiment on SR, 1.12 µM (inactive). Further, the GI50 in the experiment with UACC-257 was 25.4 µM (inactive); in the experiment on MDA-MB-435, 29 µM (inactive); in the experiment with MDA-MB-231, 22.1 µM (inactive); with OVCAR-4, 20.8 µM (inactive); in the experiment with HL-60, 16.9 µM (inactive); with UO-31 it was 22.8 µM (inactive). Moreover, the GI50 with SN12C was 69.8 µM (inactive); in the experiment on A498, 24 µM (inactive); in the experiment on OVCAR-3, 22.5 µM (inactive); with SF-295, 96.6 µM (inactive); in the experiment with MDA-N it was 28.8 µM (inactive); in the experiment with K562 it was 20.5 µM (inactive). Also, the values for the GI50 with UACC-62 and in the experiment on SF-539 were 20.4 µM (inactive) and 41.4 µM (inactive), respectively.

For `O=C1Nc2ccccc2/C1=N/Nc1c(F)c(F)c(F)c(F)c1F`, the GI50 was 87.7 µM (inactive) in the experiment on NCI-H23; 53.8 µM (inactive) in the experiment with RXF 393; 67 µM (inactive) in the experiment with DU-145; 29.9 µM in the experiment with HCT-15; 36.6 µM (inactive) in the experiment with MCF7; 3.48 µM (inactive) in the experiment on SR. Also, the GI50 with UACC-257 is 27.2 µM (inactive); with MDA-MB-435, > 100 µM (inactive); in the experiment on MDA-MB-231, > 100 µM (inactive); in the experiment with OVCAR-4, 82 µM (inactive); in the experiment with HL-60 it was 2.77 µM (inactive); with UO-31, 17.1 µM (inactive). Moreover, the GI50 in the experiment with SN12C is 36.5 µM (inactive); with A498, 66.8 µM (inactive); with OVCAR-3, > 100 µM (inactive); in the experiment with SF-295, > 100 µM (inactive); with MDA-N, 32.2 µM (inactive); in the experiment on K562, 8.63 µM (inactive). Further, the GI50 in the experiment on UACC-62 is > 100 µM (inactive); with SF-539, 48.4 µM (inactive).

`OC1[C@H](O)CN(OCc2ccccc2)C[C@@H]1O` (stereo not given in full): the GI50 was > 100 µM (inactive) in the experiment on NCI-H23; > 100 µM (inactive) with RXF 393; > 100 µM (inactive) in the experiment on DU-145; more than 100 µM in the experiment with HCT-15; > 100 µM (inactive) in the experiment on MCF7; > 100 µM (inactive) with SR. In addition, the GI50 in the experiment on UACC-257, with MDA-MB-435, in the experiment on MDA-MB-231, in the experiment with OVCAR-4, in the experiment with HL-60 and with UO-31 was > 100 µM (inactive) each time. For the same molecule, the GI50 in the experiment on SN12C, in the experiment on A498, in the experiment with OVCAR-3, in the experiment on SF-295, with MDA-N and in the experiment on K562 was > 100 µM (inactive) each time. Moreover, the GI50 in the experiment with UACC-62 and with SF-539 was > 100 µM (inactive) throughout.

In the case of `O=C(O)C(C1NCCS1)N1C(=O)c2ccccc2C1=O` (stereo not given), the GI50 was > 100 µM (inactive) in the experiment with NCI-H23; > 100 µM (inactive) with RXF 393; > 100 µM (inactive) with DU-145; more than 100 µM with HCT-15; > 100 µM (inactive) with MCF7; > 100 µM (inactive) in the experiment on SR. In addition, the GI50 in the experiment with UACC-257, with MDA-MB-435, in the experiment with MDA-MB-231, in the experiment with OVCAR-4, with HL-60 and in the experiment on UO-31 was > 100 µM (inactive) in each case. The GI50 with SN12C, in the experiment on A498, in the experiment with OVCAR-3, in the experiment with SF-295, in the experiment with MDA-N and in the experiment with K562 was > 100 µM (inactive) each time. Moreover, the GI50 with UACC-62 and in the experiment with SF-539 was > 100 µM (inactive) throughout.

With `CCN(CC)C(=S)N/N=C(/C)c1cccc(/C(C)=N\NC(=S)N(CC)CC)n1`, the GI50 in the experiment on NCI-H23 was 3.44 µM (inactive); in the experiment on RXF 393, 2.3 µM (inactive); in the experiment on DU-145, 0.414 µM (active); in the experiment with HCT-15 it was 2.3 µM; in the experiment on MCF7, 2.04 µM (inactive); with SR, 0.32 µM (active). Also, the GI50 was 2.2 µM (inactive) in the experiment with UACC-257; 3.35 µM (inactive) in the experiment on MDA-MB-435; 1.76 µM (inactive) in the experiment on MDA-MB-231; 1.25 µM (inactive) in the experiment on OVCAR-4; 0.055 µM (active) with HL-60; 1.95 µM (inactive) in the experiment on UO-31. Moreover, the GI50 is 2.79 µM (inactive) in the experiment on SN12C; 1.89 µM (inactive) in the experiment on A498; 1.35 µM (inactive) in the experiment on OVCAR-3; 1.66 µM (inactive) in the experiment on SF-295; 6.37 µM (inactive) in the experiment with MDA-N; 2.67 µM (inactive) in the experiment with K562. Further, the values for the GI50 in the experiment on UACC-62 and in the experiment on SF-539 were 2.62 µM (inactive) and 1.37 µM (inactive), respectively.

For `O=C(NN1CCCCC1)c1cc2cc(CCl)ccc2oc1=O`, the GI50 with NCI-H23 is 16.5 µM (inactive); with RXF 393, 18.5 µM (inactive); with DU-145, 29.4 µM (inactive); in the experiment on HCT-15, 17.7 µM; with MCF7, 38.7 µM (inactive); in the experiment with SR, 21.2 µM (inactive). Further, the GI50 with UACC-257 is 21.6 µM (inactive); in the experiment on MDA-MB-435, 18.5 µM (inactive); with MDA-MB-231, 20.6 µM (inactive); with OVCAR-4, 18.4 µM (inactive); in the experiment on HL-60, 16.5 µM (inactive); in the experiment with UO-31, 18.5 µM (inactive). The GI50 is 18.4 µM (inactive) in the experiment on SN12C; 75.2 µM (inactive) in the experiment with A498; 20.4 µM (inactive) in the experiment on OVCAR-3; 20.1 µM (inactive) in the experiment on SF-295; 15.7 µM (inactive) in the experiment with MDA-N; 16.7 µM (inactive) with K562. Further, the results for the GI50 with UACC-62 and in the experiment with SF-539 were 27.7 µM (inactive) and 27.4 µM (inactive), respectively.

Regarding `COC(=O)C1=C(O)C(C(=O)OC)[C@@]2(O)[C@@H](C(=O)OC)C(c3ccc(OC(=O)/C=C/c4ccccc4)cc3)C[C@@H]1[C@@H]2C(=O)OC` (stereo not given in full), the GI50 in the experiment with NCI-H23 was 13.3 µM (inactive); in the experiment on RXF 393, 3.06 µM (inactive); in the experiment on DU-145, 11 µM (inactive); in the experiment with HCT-15, 3.89 µM; with MCF7, 2.99 µM (inactive); in the experiment with SR, 3.02 µM (inactive). Moreover, the GI50 in the experiment with UACC-257 was 7.23 µM (inactive); in the experiment with MDA-MB-435, 4.83 µM (inactive); in the experiment on MDA-MB-231, 14.7 µM (inactive); in the experiment on OVCAR-4 it was 6.18 µM (inactive); in the experiment on HL-60, 4.55 µM (inactive); in the experiment with UO-31, 10.6 µM (inactive). Further, the GI50 with SN12C is 7.11 µM (inactive); with A498 it was 34.8 µM (inactive); in the experiment on OVCAR-3, 9.77 µM (inactive); in the experiment with SF-295, 23.9 µM (inactive); in the experiment on MDA-N it was 3.24 µM (inactive); in the experiment on K562 it was 5.79 µM (inactive). For the same molecule, the results for the GI50 in the experiment with UACC-62 and in the experiment on SF-539 were 4.36 µM (inactive) and 3.43 µM (inactive), respectively.

For `C=C(CN(C)C)C(=O)c1ccccc1[N+](=O)[O-]`, the GI50 with NCI-H23 is 16.9 µM (inactive); with RXF 393 it was 16.1 µM (inactive); in the experiment on DU-145, 23.6 µM (inactive); in the experiment on HCT-15, 10.8 µM; in the experiment on MCF7 it was 14.3 µM (inactive); in the experiment with SR it was 3.38 µM (inactive). The GI50 in the experiment on UACC-257 was 15.8 µM (inactive); with MDA-MB-435, 16.1 µM (inactive); with MDA-MB-231, 18.2 µM (inactive); in the experiment with OVCAR-4, 16.9 µM (inactive); in the experiment on HL-60, 2.79 µM (inactive); in the experiment on UO-31, 17.7 µM (inactive). Besides, the GI50 with SN12C was 17.7 µM (inactive); in the experiment on A498, > 57.8 µM (inactive); in the experiment on OVCAR-3, 18.9 µM (inactive); in the experiment on SF-295 it was 32.8 µM (inactive); in the experiment with MDA-N, 14.5 µM (inactive); in the experiment on K562, 3.39 µM (inactive). Moreover, the GI50 is 17.9 µM (inactive) in the experiment with UACC-62 and 39.7 µM (inactive) in the experiment with SF-539.
